How the values were obtained:
[1] = target: Serine/threonine-protein kinase PAK 4 (Homo sapiens) (UniProt O96013); experiment: Inhibition of human PAK4 assessed as residual activity at 1 uM using bio-4xCHKT as substrate in presence of 33P-ATP by ProQinase assay relative to control
[2] = system: Mast/stem cell growth factor receptor Kit (Homo sapiens), P10721 [L576P]; experiment: Inhibition of KIT L576P mutant (unknown origin) assessed as remaining activity at 1 uM by Kinome scan method relative to control
[3] = target: Serine/threonine-protein kinase PAK 1 (Homo sapiens) (UniProt Q13153); experiment: Inhibition of PAK1 (unknown origin) assessed as remaining activity at 1 uM by Kinome scan method relative to control
[4] = target: Tyrosine-protein kinase JAK1 (Homo sapiens) (UniProt P23458); experiment: Inhibition of human JAK1 assessed as residual activity at 1 uM using RBER-IRStide as substrate in presence of 33P-ATP by ProQinase assay relative to control
[5] = target: Protein kinase C epsilon type (Homo sapiens) (UniProt Q02156); experiment: Inhibition of PRKCE (unknown origin) assessed as remaining activity at 1 uM by Kinome scan method relative to control
[6] = target: Cyclin-dependent kinase 19 (Homo sapiens) (UniProt Q9BWU1); experiment: Inhibition of CDK11 (unknown origin) assessed as remaining activity at 1 uM by Kinome scan method relative to control
[7] = system: Mast/stem cell growth factor receptor Kit (Homo sapiens), P10721 [T670I]; experiment: Inhibition of human KIT T670I mutant assessed as residual activity at 1 uM using polyEY as substrate in presence of 33P-ATP by ProQinase assay relative to control
[8] = target: Phosphatidylinositol 4,5-bisphosphate 3-kinase catalytic subunit alpha isoform (Homo sapiens) (UniProt P42336); experiment: Inhibition of PIK3CA (unknown origin) assessed as remaining activity at 1 uM by Kinome scan method relative to control
[9] = target: Ribosomal protein S6 kinase alpha-6 (Homo sapiens) (UniProt Q9UK32); experiment: Inhibition of N-terminal kinase domain RPS6KA6 (unknown origin) assessed as remaining activity at 1 uM by Kinome scan method relative to control
[10] = target: Cyclin-dependent kinase 5 (Homo sapiens) (UniProt Q00535); experiment: Inhibition of CDK5 (unknown origin) assessed as remaining activity at 1 uM by Kinome scan method relative to control
[11] = target: Protein kinase C zeta type (Homo sapiens) (UniProt Q05513); experiment: Inhibition of human PKCzeta assessed as residual activity at 1 uM using 3xChocktide-PKC(19-31) as substrate in presence of 33P-ATP by ProQinase assay relative to control
[12] = Anti-inflammatory activity against human derived medium respond PBMC cells assessed as inhibition in stimulated IL-1ra cytokine release incubated for 2 hrs in the presence of LPS/SEB/aCD28 by Luminex based sandwich immunoassay; format: functional, cell-based
[13] = target: Glycogen synthase kinase-3 beta (Homo sapiens) (UniProt P49841); experiment: Inhibition of human GSK3beta assessed as residual activity at 1 uM using RBER-CHKtide as substrate in presence of 33P-ATP by ProQinase assay relative to control
[14] = Anti-inflammatory activity against human derived high respond PBMC cells assessed as inhibition in stimulated INFgamma cytokine release incubated for 2 hrs in the presence of LPS/SEB/aCD28 by Luminex based sandwich immunoassay; format: functional, cell-based
[15] = target: Activin receptor type-1 (Homo sapiens) (UniProt Q04771); experiment: Inhibition of ACVR1 (unknown origin) assessed as remaining activity at 1 uM by Kinome scan method relative to control
[16] = target: Ribosomal protein S6 kinase alpha-2 (Homo sapiens) (UniProt Q15349); experiment: Inhibition of human RPS6KA2 assessed as residual activity at 1 uM using bio-4xCHKT as substrate in presence of 33P-ATP by ProQinase assay relative to control
[17] = target: Activin receptor type-1-like (Homo sapiens) (UniProt P37023); experiment: Inhibition of human ACVRL1 assessed as residual activity at 1 uM using Casein as substrate in presence of 33P-ATP by ProQinase assay relative to control
[18] = system: Epidermal growth factor receptor (Homo sapiens), P00533 [L858R,T790M]; experiment: Inhibition of human EGFR T790M/L858R mutant assessed as residual activity at 1 uM using PolyEY as substrate in presence of 33P-ATP by ProQinase assay relative to control
[19] = Anti-inflammatory activity against human derived high respond PBMC cells assessed as inhibition in stimulated IL-1ra cytokine release incubated for 2 hrs in the presence of LPS/SEB/aCD28 by Luminex based sandwich immunoassay; format: functional, cell-based
[20] = target: Protein kinase C alpha type (Homo sapiens) (UniProt P17252); experiment: Inhibition of human PKCalpha assessed as residual activity at 1 uM using 3xChocktide-PKC(19-31) as substrate in presence of 33P-ATP by ProQinase assay relative to control
[21] = Anti-inflammatory activity against human derived high respond PBMC cells assessed as inhibition in stimulated IL-4 cytokine release incubated for 2 hrs in the presence of LPS/SEB/aCD28 by Luminex based sandwich immunoassay; format: functional, cell-based
[22] = target: MAP kinase-activated protein kinase 3 (Homo sapiens) (UniProt Q16644); experiment: Inhibition of human MAPKAPK3 assessed as residual activity at 1 uM using bio-4xCHKT as substrate in presence of 33P-ATP by ProQinase assay relative to control
[23] = target: Serine/threonine-protein kinase Nek7 (Homo sapiens) (UniProt Q8TDX7); experiment: Inhibition of NEK7 (unknown origin) assessed as remaining activity at 1 uM by Kinome scan method relative to control
[24] = target: Serine/threonine-protein kinase PAK 6 (Homo sapiens) (UniProt Q9NQU5); experiment: Inhibition of PAK6 (unknown origin) assessed as remaining activity at 1 uM by Kinome scan method relative to control
[25] = target: Mitogen-activated protein kinase kinase kinase 11 (Homo sapiens) (UniProt Q16584); experiment: Inhibition of human MAP3K11 assessed as residual activity at 1 uM using MBP as substrate in presence of 33P-ATP by ProQinase assay relative to control
[26] = target: Dual specificity protein kinase CLK3 (Homo sapiens) (UniProt P49761); experiment: Inhibition of CLK3 (unknown origin) assessed as remaining activity at 1 uM by Kinome scan method relative to control
[27] = target: Angiopoietin-1 receptor (Homo sapiens) (UniProt Q02763); experiment: Inhibition of human TIE2 assessed as residual activity at 1 uM using polyEY as substrate in presence of 33P-ATP by ProQinase assay relative to control

Sequence of Mast/stem cell growth factor receptor Kit (Homo sapiens), P10721 [L576P] (P10721 whole entry L576P): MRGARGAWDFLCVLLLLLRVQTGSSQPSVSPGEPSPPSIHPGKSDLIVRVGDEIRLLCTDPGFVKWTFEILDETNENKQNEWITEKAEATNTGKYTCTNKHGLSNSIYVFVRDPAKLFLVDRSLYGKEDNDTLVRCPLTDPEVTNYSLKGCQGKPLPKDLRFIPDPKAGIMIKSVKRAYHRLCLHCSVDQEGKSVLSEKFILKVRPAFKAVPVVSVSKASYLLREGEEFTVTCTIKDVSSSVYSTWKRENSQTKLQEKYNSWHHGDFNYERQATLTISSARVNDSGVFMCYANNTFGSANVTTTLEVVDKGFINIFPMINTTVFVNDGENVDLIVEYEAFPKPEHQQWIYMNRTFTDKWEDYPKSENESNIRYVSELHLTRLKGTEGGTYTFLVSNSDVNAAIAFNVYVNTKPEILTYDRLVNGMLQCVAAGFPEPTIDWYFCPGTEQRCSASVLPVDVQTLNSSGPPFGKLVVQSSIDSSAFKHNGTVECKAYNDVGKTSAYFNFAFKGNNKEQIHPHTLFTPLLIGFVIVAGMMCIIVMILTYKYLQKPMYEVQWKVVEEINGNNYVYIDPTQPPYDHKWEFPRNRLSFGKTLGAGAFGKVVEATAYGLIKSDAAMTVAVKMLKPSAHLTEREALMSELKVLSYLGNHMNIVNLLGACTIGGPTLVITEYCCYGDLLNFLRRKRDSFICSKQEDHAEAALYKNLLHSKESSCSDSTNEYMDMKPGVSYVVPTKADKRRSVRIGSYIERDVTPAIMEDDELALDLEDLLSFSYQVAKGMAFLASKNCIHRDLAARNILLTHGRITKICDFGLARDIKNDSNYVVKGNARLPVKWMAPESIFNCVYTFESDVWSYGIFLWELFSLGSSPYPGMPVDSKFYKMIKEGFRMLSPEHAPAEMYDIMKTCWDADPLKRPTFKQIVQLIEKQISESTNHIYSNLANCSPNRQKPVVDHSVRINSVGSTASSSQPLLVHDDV
Sequence of Activin receptor type-1 (Homo sapiens) (Q04771 whole entry): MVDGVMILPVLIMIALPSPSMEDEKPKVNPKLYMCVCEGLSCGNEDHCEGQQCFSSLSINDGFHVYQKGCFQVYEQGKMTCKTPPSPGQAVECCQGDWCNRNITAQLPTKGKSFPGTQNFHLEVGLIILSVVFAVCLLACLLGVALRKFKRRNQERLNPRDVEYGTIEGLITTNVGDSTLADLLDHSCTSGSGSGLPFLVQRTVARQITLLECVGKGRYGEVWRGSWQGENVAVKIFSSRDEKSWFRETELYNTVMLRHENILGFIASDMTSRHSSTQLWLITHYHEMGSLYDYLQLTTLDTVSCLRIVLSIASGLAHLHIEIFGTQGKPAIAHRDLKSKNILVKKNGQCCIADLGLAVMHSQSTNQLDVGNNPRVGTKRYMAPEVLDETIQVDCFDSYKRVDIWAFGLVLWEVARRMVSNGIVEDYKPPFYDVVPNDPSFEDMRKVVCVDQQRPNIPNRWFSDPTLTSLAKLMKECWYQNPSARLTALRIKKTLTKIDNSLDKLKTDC
Sequence of Mitogen-activated protein kinase kinase kinase 11 (Homo sapiens) (Q16584 whole entry, looked up): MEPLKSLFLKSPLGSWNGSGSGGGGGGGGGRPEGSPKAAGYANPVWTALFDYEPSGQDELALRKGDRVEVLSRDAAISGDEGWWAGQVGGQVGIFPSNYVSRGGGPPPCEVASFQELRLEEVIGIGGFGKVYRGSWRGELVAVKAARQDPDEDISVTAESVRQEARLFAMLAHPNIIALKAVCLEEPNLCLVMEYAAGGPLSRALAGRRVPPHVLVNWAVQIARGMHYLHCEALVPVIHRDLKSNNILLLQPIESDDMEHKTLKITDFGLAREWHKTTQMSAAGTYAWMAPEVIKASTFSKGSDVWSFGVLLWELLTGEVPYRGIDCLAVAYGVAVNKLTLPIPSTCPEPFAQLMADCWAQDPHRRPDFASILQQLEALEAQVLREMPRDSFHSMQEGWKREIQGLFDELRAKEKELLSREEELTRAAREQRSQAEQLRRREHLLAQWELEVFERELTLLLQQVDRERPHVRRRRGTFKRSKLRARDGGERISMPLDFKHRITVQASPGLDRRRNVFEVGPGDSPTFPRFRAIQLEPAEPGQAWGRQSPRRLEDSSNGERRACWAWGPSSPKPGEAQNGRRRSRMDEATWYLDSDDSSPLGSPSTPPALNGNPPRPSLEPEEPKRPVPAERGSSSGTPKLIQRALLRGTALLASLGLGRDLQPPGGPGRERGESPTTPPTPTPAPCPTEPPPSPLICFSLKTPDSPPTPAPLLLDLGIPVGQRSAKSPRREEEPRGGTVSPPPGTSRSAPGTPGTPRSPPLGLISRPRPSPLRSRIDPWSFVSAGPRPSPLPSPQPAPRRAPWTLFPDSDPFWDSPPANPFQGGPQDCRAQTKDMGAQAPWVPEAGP
Sequence of Cyclin-dependent kinase 5 (Homo sapiens) (Q00535 whole entry, looked up): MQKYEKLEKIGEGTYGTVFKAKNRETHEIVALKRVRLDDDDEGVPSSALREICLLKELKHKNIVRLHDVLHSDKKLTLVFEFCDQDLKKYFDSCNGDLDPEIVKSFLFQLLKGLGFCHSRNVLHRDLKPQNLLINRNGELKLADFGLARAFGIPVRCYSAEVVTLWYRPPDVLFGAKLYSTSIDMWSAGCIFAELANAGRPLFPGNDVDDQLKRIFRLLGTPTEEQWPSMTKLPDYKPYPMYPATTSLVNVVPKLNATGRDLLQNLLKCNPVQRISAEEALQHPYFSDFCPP
Sequence of Protein kinase C zeta type (Homo sapiens) (Q05513 whole entry): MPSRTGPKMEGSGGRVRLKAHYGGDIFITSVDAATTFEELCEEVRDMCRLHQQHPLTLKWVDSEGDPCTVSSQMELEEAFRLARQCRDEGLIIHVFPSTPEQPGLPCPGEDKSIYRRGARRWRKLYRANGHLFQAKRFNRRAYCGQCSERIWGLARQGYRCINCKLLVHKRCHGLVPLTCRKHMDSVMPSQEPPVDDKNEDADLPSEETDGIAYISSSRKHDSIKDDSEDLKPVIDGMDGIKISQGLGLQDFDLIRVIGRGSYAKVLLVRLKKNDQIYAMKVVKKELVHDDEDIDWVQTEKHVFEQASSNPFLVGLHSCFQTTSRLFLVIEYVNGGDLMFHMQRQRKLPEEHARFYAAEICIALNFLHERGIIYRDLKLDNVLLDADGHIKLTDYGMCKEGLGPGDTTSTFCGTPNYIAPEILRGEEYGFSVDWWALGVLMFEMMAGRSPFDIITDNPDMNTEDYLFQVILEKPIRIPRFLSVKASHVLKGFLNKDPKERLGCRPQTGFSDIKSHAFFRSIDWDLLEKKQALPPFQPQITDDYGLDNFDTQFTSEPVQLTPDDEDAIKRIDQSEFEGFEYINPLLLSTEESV
Sequence of Serine/threonine-protein kinase PAK 6 (Homo sapiens) (Q9NQU5 whole entry, looked up): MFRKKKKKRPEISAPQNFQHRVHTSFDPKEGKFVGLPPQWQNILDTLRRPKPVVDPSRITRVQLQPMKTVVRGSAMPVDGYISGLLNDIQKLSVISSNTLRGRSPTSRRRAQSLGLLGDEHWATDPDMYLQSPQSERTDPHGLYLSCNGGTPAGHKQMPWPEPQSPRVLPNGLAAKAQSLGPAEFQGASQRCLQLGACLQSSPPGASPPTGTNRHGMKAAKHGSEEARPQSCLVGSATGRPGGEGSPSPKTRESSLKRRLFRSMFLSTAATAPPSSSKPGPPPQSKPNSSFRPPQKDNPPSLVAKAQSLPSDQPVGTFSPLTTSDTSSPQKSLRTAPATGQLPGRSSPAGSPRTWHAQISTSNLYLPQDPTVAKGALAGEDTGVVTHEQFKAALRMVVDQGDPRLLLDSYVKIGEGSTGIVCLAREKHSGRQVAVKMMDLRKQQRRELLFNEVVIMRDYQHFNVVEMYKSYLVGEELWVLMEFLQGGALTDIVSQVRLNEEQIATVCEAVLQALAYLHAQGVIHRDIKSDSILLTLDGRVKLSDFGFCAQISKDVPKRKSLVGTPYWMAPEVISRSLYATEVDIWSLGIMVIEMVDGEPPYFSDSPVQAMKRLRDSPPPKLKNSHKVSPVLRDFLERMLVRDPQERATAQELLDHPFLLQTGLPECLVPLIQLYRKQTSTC
Sequence of Serine/threonine-protein kinase Nek7 (Homo sapiens) (Q8TDX7 whole entry, looked up): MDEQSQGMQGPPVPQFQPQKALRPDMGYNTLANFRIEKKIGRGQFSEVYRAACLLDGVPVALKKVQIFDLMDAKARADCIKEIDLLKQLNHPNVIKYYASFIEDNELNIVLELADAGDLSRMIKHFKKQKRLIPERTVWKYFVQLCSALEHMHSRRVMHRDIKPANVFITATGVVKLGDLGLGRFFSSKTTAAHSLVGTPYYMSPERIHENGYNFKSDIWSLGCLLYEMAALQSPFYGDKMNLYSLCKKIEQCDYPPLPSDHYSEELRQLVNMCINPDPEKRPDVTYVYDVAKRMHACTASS
Sequence of Mast/stem cell growth factor receptor Kit (Homo sapiens), P10721 [T670I] (P10721 whole entry T670I, canonical isoform): as the sequence (P10721 whole entry L576P) above, with P576L, T670I counted along it

O=C1c2ccc(Nc3ccc(F)cc3F)cc2CCc2ccc(OC[C@H](O)CO)cc21 [Skepinone-L] gave an Activity [1] of 88%, an Activity [2] of 98% and an Activity [3] of 100%. It also gave an Activity [4] of 93%, an Activity [5] of 100% and an Activity [6] of 100%. The Activity [7] was 145%, the Activity [8] was 100% and the Activity [9] was 90%. It also gave an Activity [10] of 100%, an Activity [11] of 109% and an IC50 [12] of 870 nM. It also gave an Activity [13] of 97%, an IC50 [14] of 60 nM and an Activity [15] of 99%. It also gave an Activity [16] of 90%, an Activity [17] of 105% and an Activity [18] of 93%. The IC50 [19] was 200 nM, the Activity [20] was 96% and the IC50 [21] was “Not Active”. For the same compound, the Activity [22] was 95%, the Activity [23] was 96% and the Activity [24] was 99%. For the same compound, the Activity [25] was 114%, the Activity [26] was 96% and the Activity [27] was 98%.

From ChEMBL document CHEMBL5696441 (Nat Chem Biol, 2011)
